ChEMBL document CHEMBL1139174, “Modeling of human ghrelin receptor (hGHS-R1a) in its close state and validation by molecular docking” (Bioorg Med Chem, 2007)
Square brackets hold non-standard residues; d marks the D form. Peptide text beside a SMILES is read from it. d(hPhe) = N[C@H](CCc1ccccc1)C(=O)O; Aib = CC(C)(N)C(=O)O

What follows are molecules tested against Growth hormone secretagogue receptor type 1 (Homo sapiens, UniProt Q92847) (assay: Agonist activity at human GHS-R1). Settings: not given.
Chain of Growth hormone secretagogue receptor type 1 (Q92847 whole entry): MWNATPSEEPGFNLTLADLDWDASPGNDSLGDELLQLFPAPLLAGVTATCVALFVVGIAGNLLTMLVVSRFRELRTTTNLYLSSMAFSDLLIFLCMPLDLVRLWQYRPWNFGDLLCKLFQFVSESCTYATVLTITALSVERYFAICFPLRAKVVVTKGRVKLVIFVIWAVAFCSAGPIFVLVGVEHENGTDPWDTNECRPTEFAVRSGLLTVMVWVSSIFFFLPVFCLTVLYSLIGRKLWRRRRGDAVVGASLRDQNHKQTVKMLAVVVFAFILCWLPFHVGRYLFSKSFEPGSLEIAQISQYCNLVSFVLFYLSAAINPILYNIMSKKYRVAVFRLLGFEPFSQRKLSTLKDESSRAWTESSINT
Assay type: functional
For `CC(C)(N)C(=O)N[C@H](CCCc1ccccc1)C(=O)N1CCC2(CC1)C[S+]([O-])c1ccccc12` (some centres not stated), the “Log EC50” value was -8.6.

Same assay, conditions: read-out: EC50
In the case of `O=C(N[C@H](Cc1ccc2ccccc2c1)C(=O)N[C@@H](CO)Cc1ccc2ccccc2c1)C1CCNCC1`, the EC50 is reported as 1.8 nM.
In the case of `CNC(C)(C)C/C=C/C(=O)N(C)[C@H](Cc1ccc2ccccc2c1)C(=O)N(C)CCc1ccccc1`, the EC50 is reported as 3 nM.
Molecule `CC(C)S(=O)(=O)Nc1ccccc1N1CCN(C(=O)[C@@H](CCCc2ccccc2)NC(=O)C(C)(C)N)CC1` has an EC50 of 2.8 nM.
For `CCOC(=O)[C@]1(Cc2ccccc2)CCCN(C(=O)[C@@H](Cc2c[nH]c3ccccc23)NC(=O)C(C)(C)N)C1`, the EC50 was 1.6 nM.
In the case of `CCN(CC)CCN1C(=O)[C@@](O)(c2ccc3ccccc3c2)c2c1cc(C#CCCC(=O)N(C)C)cc2C(F)(F)F`, the EC50 is reported as 30 nM.
`NCCNC(=O)[C@@H](Cc1cccc2ccccc12)NC(=O)CCN1C(=O)CCS(=O)(=O)c2ccccc21` showed an EC50 of 10 nM.
In the case of `CCN(CC)CCN1C(=O)[C@@](O)(c2ccc3ccccc3c2)c2c1cc(C(N)=O)cc2C(F)(F)F`, the EC50 is reported as 18 nM.
`CC(C)(N)C(=O)N[C@H](CCCc1ccccc1)C(=O)N1CCN(c2ccccc2NS(=O)(=O)CC(=O)O)CC1` showed an EC50 of 2.3 nM.
`O=C(N[C@H](Cc1ccc2ccccc2c1)C(=O)N[C@@H](CO)Cc1c[nH]c2ccccc12)C1CCNCC1` was tested, and the EC50 was 10 nM.
In the case of `NC(=O)[C@@H](NC(=O)[C@@H](Cc1ccc2ccccc2c1)NC(=O)[C@@H](Cc1ccc2ccccc2c1)NC(=O)C1CCNCC1)c1ccccc1`, the EC50 is reported as 0.28 nM.
`Cc1ccccc1N1CCN(C(=O)[C@@H](CCCc2ccccc2)NC(=O)C(C)(C)N)CC1` was tested, and the EC50 was 100 nM.
In the case of `CCNC(=O)[C@]1(Cc2ccccc2)CCCN(C(=O)[C@@H](Cc2c[nH]c3ccccc23)NC(=O)C(C)(C)N)C1`, the EC50 is reported as 0.8 nM.
With `CCN(CC)CCN1C(=O)[C@@](O)(c2ccc3ccccc3c2)c2c1cc(C#CCCC(=O)N1CCOCC1)cc2C(F)(F)F` the EC50 was 30 nM.
Work on `CCN(CC)CCN1C(=O)[C@@](O)(c2ccc3ccccc3c2)c2c(Br)cccc21` yielded an EC50 of 77 nM.
In the case of `NCC(O)CNC(=O)[C@@H](Cc1cccc2ccccc12)NC(=O)CCCN1C(=O)CCSc2ccccc21` (some centres not stated), the EC50 is reported as 1 nM.
For `CC(C)(N)C(=O)N[C@H](CCCc1ccccc1)C(=O)N1CCN(c2ccccc2NS(C)(=O)=O)CC1`, the EC50 was 6.3 nM.
In the case of `NCCCCNC(=O)[C@@H](Cc1ccc2ccccc2c1)NC(=O)[C@@H](Cc1ccc2ccccc2c1)NC(=O)C1CCNCC1`, the EC50 is reported as 17 nM.
In the case of `CCOC(=O)[C@@H](CCc1ccccc1)NC(=O)[C@@H](Cc1c[nH]c2ccccc12)NC(=O)C(C)(C)N` (H-[Aib]-[dW]-[d(hPhe)]-OEt), the EC50 is reported as 3 nM.
`COC(=O)CS(=O)(=O)Nc1ccccc1N1CCN(C(=O)[C@@H](CCCc2ccccc2)NC(=O)C(C)(C)N)CC1` showed an EC50 of 4.5 nM.

Same assay, conditions: read-out: Log EC50 (converted)
For `Cc1ccccc1N1CCN(C(=O)[C@@H](CCCc2ccccc2)NC(=O)C(C)(C)N)CC1`, the EC50 was 14.1 nM.
For `NCC(O)CNC(=O)[C@@H](Cc1cccc2ccccc12)NC(=O)CCCN1C(=O)CCSc2ccccc21` (some centres not stated), the EC50 was 2 nM.
